Source: paper PMC9574860, “Chemical Toolkit for PARK7: Potent, Selective, and High-Throughput” (Journal of Medicinal Chemistry, 2022)

Tests used:
UCHL1 = target: T1, UCHL1 (Homo sapiens, UniProt P09936); assay: Gel-based competition assay with probe 8RK59, UCHL1 band; assay type: biochemical; settings: compound 2 μM, 1 h; PARK7 and UCHL1 1 μM each; then 8RK59 2 μM 30 min; Figure 3B
T1 sequence (P09936 1-223): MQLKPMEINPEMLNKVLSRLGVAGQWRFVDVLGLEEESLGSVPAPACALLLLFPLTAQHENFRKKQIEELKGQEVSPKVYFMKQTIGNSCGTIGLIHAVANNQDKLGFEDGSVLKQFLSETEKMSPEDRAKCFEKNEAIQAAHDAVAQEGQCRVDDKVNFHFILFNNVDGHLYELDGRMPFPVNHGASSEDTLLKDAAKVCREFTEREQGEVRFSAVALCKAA
Method: (§1) To assess the inhibitory potency and selectivity of these compounds toward PARK7 and UCHL1, we performed a gel-based competition assay (Figure 3A).[36] A mixture of equal amounts of PARK7 and UCHL1 (1 μM) was treated with each of the synthesized compounds (2 μM) for 1 h, followed by incubation with fluorescent probe 8RK59 (2 μM) for 30 min. Samples were resolved by SDS-PAGE, and the gel was scanned for fluorescence. Inhibition of PARK7 or UCHL1 is reflected by the disappearance of their corresponding bands (Figure 3B). […] The inhibition potential of JYQ-88 against PARK7 was assessed in a similar assay where PARK7 was incubated with a serial dilution of JYQ-88 before treatment with probe 8RK59 (Figure 3C). A clear inhibition is visible at 0.5 μM, and full inhibition is achieved between 1 and 2 μM. […] The selectivity of JYQ-88 between UCHL1 and PARK7 was further confirmed in a direct competition assay between equal amounts of PARK7 and UCHL1 (Figure 3F). PARK7 inhibition was observed starting from 0.5 μM JYQ-88, whereas inhibition of UCHL1 was only detected at 20 μM. Since JYQ-88 and 8RK64 are enantiomers, we assumed that the interactions with PARK7 should be similar. To investigate how the chiral center influences the selectivity, we solved the crystal structure of the PARK7−JYQ-88 complex with 1.42 Å resolution (Figure 3G, Table S1, PDB 7PA3). The global positioning of the inhibitor in between the two α-helices was similar to that for 8RK64. […] This way, the thiazolo-pyridine part of JYQ-88 is bound in a similar manner as 8RK64 and the earlier observed interactions are largely the same. The formation of the isothiourea moiety, stabilized by the interaction with Glu18, and the interaction between the thiazole amine and the amide NH2 of the Asn76 side chain are still present. However, the interaction between the azidoacetyl carbonyl with the Leu128 backbone carbonyl can no longer be observed due to the rotation of the azidoacetyl moiety. The Lys132 residue also seems to have rotated (compared to Figure 2C).
(§2) The assay was performed in Tris buffer as described above.

PARK7 [1] = target: T2, PARK7 (Homo sapiens, UniProt Q99497); assay: Gel-based competition assay with probe 8RK59, PARK7 band; assay type: biochemical; parameters: GST (N, cleaved yes); made in house; host or cells: E. coli BL21(DE3) Rosetta2; settings: compound 2 μM, 1 h; PARK7 and UCHL1 1 μM each; then 8RK59 2 μM 30 min; Figure 3B
T2 sequence (Q99497 1-189): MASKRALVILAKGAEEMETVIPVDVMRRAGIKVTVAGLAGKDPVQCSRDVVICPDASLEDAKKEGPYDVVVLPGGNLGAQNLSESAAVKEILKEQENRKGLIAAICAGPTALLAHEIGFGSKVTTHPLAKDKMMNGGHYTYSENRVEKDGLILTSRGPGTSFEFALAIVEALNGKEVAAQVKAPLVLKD
Method: as §1, §2

PARK7 [2] = target: T2, PARK7; assay: DiFMUAc PARK7 activity assay; assay type: biochemical; parameters: GST (N, cleaved yes); made in house; host or cells: E. coli BL21(DE3) Rosetta2; settings: for inhibition at 12.5 µM: read-out: DiFMuAc assay %Inhibiton (12.5 µM); for inhibition at 37.5 µM: read-out: DiFMuAc assay %Inhibiton (37.5 µM); for inhibition at 100 µM: read-out: DiFMuAc assay %Inhibiton (100 µM)
Method: Compounds were transferred using a Labcyte Echo550 acoustic dispenser to obtain a 12-point serial dilution of 0.001 to 100 μM. Next, PARK7 (15 μL, final concentration of 0.1 μM) was dispensed with a Biotek MultiFlowFX liquid dispenser and incubated for 1 h, followed by dispensing the substrate DiFMUAc (5 μL, final concentration of 300 μM). The fluorescence intensity (FI) signal was monitored with a BMG Labtech PHERAstar plate reader (λex/em 350/450 nm) for 1 h.
The validation was performed in the PBS buffer with a reaction volume of 20 μL per well in triplicate. […] Next, PARK7 (15 μL, final concentration 0.1 μM) was dispensed with a Biotek MultiFlowFX liquid dispenser and incubated for 2 h, followed by dispensing the substrate DiFMUAc (5 μL, final concentration 300 μM). The FI signal was monitored with a BMG Labtech PHERAstar plate reader (λex/em 350/450 nm) for 1 h. The increase of FI signal compared with reference controls was used to calculate the remaining enzyme activity. The inhibition percentage of these 22 compounds was plotted as a heatmap using GraphPad Prism 9.0.1 software. Color gradients indicate inhibition percentage, no inhibiton (white) and full inhibition (blue).

PARK7 [3] = target: T2, PARK7; assay: FP assay with Rhodamine110 probe JYQ-107 (IC50 and hit validation); assay type: binding; parameters: GST (N, cleaved yes); made in house; host or cells: E. coli BL21(DE3) Rosetta2; settings: for inhibition at 12.5 µM: read-out: FP assay %Inhibiton (12.5 µM); for inhibition at 37.5 µM: read-out: FP assay %Inhibiton (37.5 µM); for inhibition at 100 µM: read-out: FP assay %Inhibiton (100 µM)
Method: The assay was performed using the conditions as described above with a reaction volume of 20 μL per well in triplicate. Stock solutions of JYQ-88 of 1 and 0.1 mM were prepared. […] The FP signal was monitored with a BMG Labtech PHERAstar plate reader (λex/em 480/520 nm) for 2 h.
The validation was performed using the conditions as described above with a reaction volume of 20 μL per well in triplicate. […] The FP signal was monitored with a BMG Labtech PHERAstar plate reader (λex/em 480/520 nm) for 2 h. The relative loss of FP signal compared with reference controls was used to calculate the remaining enzyme activity. Inhibition percentage of these 40 compounds was plotted as a heatmap using GraphPad Prism 9.0.1 software. Color gradients indicate inhibition percentage, no inhibiton (white) and full inhibition (blue).

[4] = 12.5 µM compound, PARK7 0.1 μM, 2 h preincubation, DiFMUAc 300 μM
[5] = 37.5 µM compound, PARK7 0.1 μM, 2 h preincubation, DiFMUAc 300 μM
[6] = 100 µM compound, PARK7 0.1 μM, 2 h preincubation, DiFMUAc 300 μM
[7] = 12.5 µM compound, PARK7 0.2 μM, 1 h preincubation, JYQ-107 20 nM
[8] = 37.5 µM compound, PARK7 0.2 μM, 1 h preincubation, JYQ-107 20 nM
[9] = 100 µM compound, PARK7 0.2 μM, 1 h preincubation, JYQ-107 20 nM

SMILES | DiFMuAc assay %Inhibiton (12.5 µM) (PARK7 [2]; [4]) | DiFMuAc assay %Inhibiton (37.5 µM) (PARK7 [2]; [5]) | DiFMuAc assay %Inhibiton (100 µM) (PARK7 [2]; [6]) | FP assay %Inhibiton (12.5 µM) (PARK7 [3]; [7]) | FP assay %Inhibiton (37.5 µM) (PARK7 [3]; [8]) | FP assay %Inhibiton (100 µM) (PARK7 [3]; [9]) | also measured
N#CN1CC[C@H](C(=O)Nc2nc3c(s2)CN(C(=O)Cc2ccncc2)CC3)C1 [JYQ-76, (S)-1-Cyano-N-(5-(2-(pyridin-4-yl)acetyl)-4,5,6,7-tetrahydrothiazolo[5,4-c]pyridin-2-yl)pyrrolidine-3-carboxamide] | – | – | – | – | – | – | Inhibition of UCHL1 (disappearance of 8RK59-labeled band) (UCHL1): fully inhibit; Inhibition of PARK7 (disappearance of 8RK59-labeled band) (PARK7 [1]): less efficiently
N#CN1CC[C@H](C(=O)Nc2nc3c(s2)CN(C(=O)c2ccc(Br)cc2)CC3)C1 [JYQ-77, (S)-N-(5-(4-Bromobenzoyl)-4,5,6,7-tetrahydrothiazolo[5,4-c]pyridin-2-yl)-1-cyanopyrrolidine-3-carboxamide] | – | – | – | – | – | – | Inhibition of UCHL1 (disappearance of 8RK59-labeled band) (UCHL1): hardly show any inhibition; Inhibition of PARK7 (disappearance of 8RK59-labeled band) (PARK7 [1]): hardly show any inhibition
CSC1(C(=O)Nc2cccc(S(=O)(=O)F)c2)CC1 [Z1832812427] | 98.0% | 92.6% | 100.0% | 98.3% | 100.0% | 100.0% | –
O=C(CCl)C1CCOCC1 [Z2491498268] | – | – | – | – | – | – | inhibition at 12.5 µM (PARK7 [2]; [4]): 94.3%; inhibition at 37.5 µM (PARK7 [2]; [5]): 95.5%; inhibition at 100 µM (PARK7 [2]; [6]): 93.2%; inhibition at 12.5 µM (PARK7 [3]; [7]): 100%; inhibition at 37.5 µM (PARK7 [3]; [8]): 100%; inhibition at 100 µM (PARK7 [3]; [9]): 100%
Cc1conc1NS(=O)(=O)c1cccc(S(=O)(=O)F)c1 [Z2509450956] | 98.5% | 98.2% | 97.5% | 100.0% | 100.0% | 100.0% | –
CC(C#N)NS(=O)(=O)c1cccc(S(=O)(=O)F)c1 (stereo not shown) [Z2509451091] | 94.5% | 95.2% | 94.5% | 100.0% | 100.0% | 100.0% | –
CCCc1nnc(NS(=O)(=O)c2cccc(S(=O)(=O)F)c2)o1 [Z2509455014] | – | – | – | – | – | – | inhibition at 12.5 µM (PARK7 [2]): 97.8%; inhibition at 37.5 µM (PARK7 [2]): 99.3%; inhibition at 100 µM (PARK7 [2]): 96.5%; inhibition at 12.5 µM (PARK7 [3]): 100%; inhibition at 37.5 µM (PARK7 [3]): 100%; inhibition at 100 µM (PARK7 [3]): 100%
CCn1ncnc1NS(=O)(=O)c1cccc(S(=O)(=O)F)c1 [Z2509462762] | – | – | – | – | – | – | inhibition at 12.5 µM (PARK7 [2]): 100%; inhibition at 37.5 µM (PARK7 [2]): 100%; inhibition at 100 µM (PARK7 [2]): 100%; inhibition at 12.5 µM (PARK7 [3]): 100%; inhibition at 37.5 µM (PARK7 [3]): 100%; inhibition at 100 µM (PARK7 [3]): 100%
O=C(CCl)c1ccc(F)c(C(=O)CCl)c1 [Z2768504793] | – | – | – | – | – | – | inhibition at 12.5 µM (PARK7 [2]; [4]): 98%; inhibition at 37.5 µM (PARK7 [2]; [5]): 98.5%; inhibition at 100 µM (PARK7 [2]; [6]): 95.9%; inhibition at 12.5 µM (PARK7 [3]; [7]): 100%; inhibition at 37.5 µM (PARK7 [3]; [8]): 100%; inhibition at 100 µM (PARK7 [3]; [9]): 100%
O=[N+]([O-])c1ccccc1S(=O)(=O)F [Z3223579620] | 99.2% | 98.3% | 98.2% | 100.0% | 100.0% | 100.0% | –
Cc1ccc(C(=O)O)cc1S(=O)(=O)F [Z3242849759] | 93.6% | 95.8% | 93.1% | 100.0% | 100.0% | 100.0% | –
O=[N+]([O-])c1cccc(S(=O)(=O)F)c1 [Z3243697698] | 100.0% | 100.0% | 100.0% | 100.0% | 100.0% | 100.0% | –
